Reference: the supplement of paper PMC10307832

Tests used:
Experiment in all cases: relative viability (nuclei count vs DMSO), 5 days (fraction); higher = more cells survive
Bleomycin + Navitoclax = compound: CC1=C(N=C(N=C1N)[C@H](CC(=O)N)NC[C@@H](C(=O)N)N)C(=O)N[C@@H]([C@H](C2=CN=CN2)OC3C(C(C(C(O3)CO)O)O)OC4C(C(C(C(O4)CO)O)OC(=O)N)O)C(=O)N[C@H](C)[C@H]([C@H](C)C(=O)N[C@@H]([C@@H](C)O)C(=O)NCCC5=NC(=CS5)C6=NC(=CS6)C(=O)NCCC[S+](C)C)O [Bleomycin] + CC1(C)CCC(c2ccc(Cl)cc2)=C(CN2CCN(c3ccc(C(=O)NS(=O)(=O)c4ccc(N[C@H](CCN5CCOCC5)CSc5ccccc5)c(S(=O)(=O)C(F)(F)F)c4)cc3)CC2)C1 [Navitoclax] (partner 0.5 µM); details: main component drawn
In short: (§1)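 Lung cancer cell lines were pin-tool dosed in 1536-well plates on the day after seeding, with either a lone drug or a fixed anchor-drug dose plus five library-drug doses (not always all listed) in √10 steps. Nuclei were counted on 4× images after 5 days. Relative viability is the ratio of treated-well to vehicle-well nuclei counts, with each value a median of duplicate plates.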

Bleomycin + Pemetrexed = compound: CC1=C(N=C(N=C1N)[C@H](CC(=O)N)NC[C@@H](C(=O)N)N)C(=O)N[C@@H]([C@H](C2=CN=CN2)OC3C(C(C(C(O3)CO)O)O)OC4C(C(C(C(O4)CO)O)OC(=O)N)O)C(=O)N[C@H](C)[C@H]([C@H](C)C(=O)N[C@@H]([C@@H](C)O)C(=O)NCCC5=NC(=CS5)C6=NC(=CS6)C(=O)NCCC[S+](C)C)O [Bleomycin] + Nc1nc2[nH]cc(CCc3ccc(C(=O)N[C@@H](CCC(=O)O)C(=O)O)cc3)c2c(=O)[nH]1 [Pemetrexed] (partner 0.2 µM); details: main component drawn
In short: as §1

Etoposide + Phenformin = compound: COc1cc([C@@H]2c3cc4c(cc3[C@@H](O[C@@H]3O[C@@H]5CO[C@@H](C)O[C@H]5[C@H](O)[C@H]3O)[C@H]3COC(=O)[C@H]23)OCO4)cc(OC)c1O [Etoposide] + N=C(N)NC(=N)NCCc1ccccc1 [Phenformin] (partner 250 µM)
In short: as §1

Bleomycin + Bortezomib = compound: CC1=C(N=C(N=C1N)[C@H](CC(=O)N)NC[C@@H](C(=O)N)N)C(=O)N[C@@H]([C@H](C2=CN=CN2)OC3C(C(C(C(O3)CO)O)O)OC4C(C(C(C(O4)CO)O)OC(=O)N)O)C(=O)N[C@H](C)[C@H]([C@H](C)C(=O)N[C@@H]([C@@H](C)O)C(=O)NCCC5=NC(=CS5)C6=NC(=CS6)C(=O)NCCC[S+](C)C)O [Bleomycin] + CC(C)C[C@H](NC(=O)[C@H](Cc1ccccc1)NC(=O)c1cnccn1)B(O)O [Bortezomib] (partner 0.002 µM); details: main component drawn
In short: as §1

Cell Line	relative viability (Bleomycin + Navitoclax; first compound 0.01 µM)	relative viability (Bleomycin + Navitoclax; first compound 0.03162 µM)	relative viability (Bleomycin + Navitoclax; first compound 0.1 µM)	relative viability (Bleomycin + Navitoclax; first compound 0.3162 µM)	relative viability (Bleomycin + Navitoclax; first compound 1 µM)	relative viability (Bleomycin + Pemetrexed; first compound 0.01 µM)	relative viability (Bleomycin + Pemetrexed; first compound 0.03162 µM)	relative viability (Bleomycin + Pemetrexed; first compound 0.1 µM)	relative viability (Bleomycin + Pemetrexed; first compound 0.3162 µM)	relative viability (Bleomycin + Pemetrexed; first compound 1 µM)	relative viability (Etoposide + Phenformin; first compound 0.01 µM)	relative viability (Etoposide + Phenformin; first compound 0.03162 µM)	relative viability (Etoposide + Phenformin; first compound 0.1 µM)	relative viability (Etoposide + Phenformin; first compound 0.3162 µM)	relative viability (Etoposide + Phenformin; first compound 1 µM)	relative viability (Bleomycin + Bortezomib; first compound 0.01 µM)	relative viability (Bleomycin + Bortezomib; first compound 0.03162 µM)	relative viability (Bleomycin + Bortezomib; first compound 0.1 µM)	relative viability (Bleomycin + Bortezomib; first compound 0.3162 µM)	relative viability (Bleomycin + Bortezomib; first compound 1 µM)
HCC-78	0.463	0.439	0.387	0.326	0.278	0.895	0.969	0.88	0.832	0.826	0.708	0.824	0.582	0.499	0.226	0.426	0.372	0.458	0.29	0.31
HCC-366	0.74	0.489	0.268	0.0573	0.0178	0.169	0.207	0.178	0.0708	0.0498	0.647	0.625	0.327	0.333	0.0669	0.736	0.34	0.293	0.0464	0.0446
HCC-827	0.986	1.06	0.991	0.723	0.362	0.252		0.25	0.235	0.207	0.413	0.412	0.338	0.315	0.156	0.948	0.918	0.9	0.464	0.357
HOP-62	0.367	0.405	0.118	0.0652	0.0435	0.277	0.361	0.303	0.141	0.128	0.71	0.795	0.578	0.475	0.276	0.359	0.189	0.0755	0.113	0.072
LC-2-ad	0.333	0.364	0.24	0.123	0.13	0.267	0.265	0.251	0.254	0.219	0.602	0.559	0.456	0.344	0.268	0.943	0.624	0.316	0.127	0.0954
LCLC-97TM1	0.191	0.197	0.102	0.152	0.1	0.169	0.165	0.189	0.141	0.0948	0.454	0.487	0.439	0.328	0.184	0.173	0.17	0.0959	0.077	0.0823
LOU-NH91	0.553	0.437	0.362	0.266	0.199	0.423	0.38	0.368	0.315	0.271	0.692	0.756	0.692	0.653	0.404	0.493	0.439	0.355	0.335	0.348
LU99A	0.622	0.491	0.335	0.166	0.147	0.158	0.157	0.159	0.165	0.133	0.898	0.992	0.589	0.579	0.16	0.763	0.83	0.602	0.167	0.128
LXF-289	0.877	0.879	0.799	0.35	0.179	0.852	0.901	0.845	0.588	0.218	0.568	0.534	0.585	0.421	0.153	0.861	0.944	0.775	0.27	0.135
NCI-H23	0.47	0.284	0.276	0.155	0.181	0.419	0.342	0.285	0.187	0.171	0.822	0.834	0.633	0.392	0.259	0.424	0.374	0.276	0.165	0.2
NCI-H322M	1.13	1.36	1.36	1.28	0.597	0.635	0.606	0.723	0.573	0.575	0.766	0.881	0.658	0.666	0.378	1.07	1.13	1.36	0.708	0.592
NCI-H441		0.733	0.574	0.389	0.339	0.248	0.251	0.267	0.217	0.244	0.835	0.976	0.587	0.275	0.198		0.886	0.458	0.226	0.211
NCI-H460	0.343	0.465	0.0823	0.0158	0.0206	0.0698	0.0674	0.0717	0.0385	0.0443	0.476	0.492	0.352	0.0419	0.0382	0.331	0.286	0.103	0.0317	0.0212
NCI-H520	0.858	0.957	1.1	0.927	0.656	0.731	0.757	0.653	0.443	0.446	0.487	0.585		0.619	0.502	0.596	0.33	0.708	0.142	0.293
NCI-H596	0.648	0.534	0.312	0.276	0.305	0.474	0.46	0.465	0.305	0.332	0.774	0.875	0.584	0.788	0.522	0.662	0.686	0.637	0.402	0.521
NCI-H647	0.408	0.263	0.203	0.0968	0.0761	0.198	0.153	0.196	0.0716	0.0627	0.386	0.592	0.509	0.245	0.094	0.39	0.299	0.223	0.118	0.0632
NCI-H838	0.768	0.403	0.274	0.19	0.172	0.247	0.227	0.232	0.19	0.19	0.517	0.64	0.44	0.395	0.183	0.67	0.204	0.23	0.0877	0.152
NCI-H1355	1.01	0.947	0.913	0.565	0.328	1	1.04	1.03	0.648	0.298	0.452	0.493	0.408	0.325	0.218	1.13	1.24	1.03	0.376	0.262
NCI-H1437	0.952	1.07	0.978	0.667	0.491	0.347	0.303	0.312	0.288	0.316	0.265	0.342	0.357	0.233	0.2	0.519	0.44	0.452	0.121	0.303
NCI-H1650	0.394	0.429	0.212	0.148	0.211	0.358	0.214	0.189	0.15	0.128	0.421	0.31	0.374	0.194	0.141	0.2	0.216	0.194	0.167	0.172
NCI-H1651	0.944	0.82	0.614	0.272	0.136	0.629	0.501	0.433	0.366	0.285	0.293	0.351	0.286	0.205	0.149	0.91	0.898	0.664	0.457	0.306
NCI-H1666	0.761	0.579	0.518	0.362	0.324	0.72	0.659	0.804	0.578	0.673	0.513	0.571	0.507	0.398	0.363	0.622	0.427	0.434	0.31	0.261
NCI-H1734	0.719	0.571	0.518	0.24	0.139	0.392	0.406	0.383	0.342	0.273	0.366	0.468	0.324	0.37	0.233	0.732	0.664	0.725	0.239	0.226
NCI-H1755	0.932	0.933	0.945	0.724	0.394	0.529	0.442	0.426	0.381	0.415	0.63	0.671	0.597	0.589	0.495	0.854	0.957	0.827	0.384	0.659
NCI-H1792	0.541	0.665	0.492	0.302	0.109	0.71	0.756	0.87	0.426	0.312	0.177	0.189		0.257	0.0965	0.871	0.958	0.663	0.323	0.283
NCI-H1915	0.726	0.78	0.732	0.537	0.212	0.428	0.394	0.31	0.211	0.146	0.38	0.361	0.429	0.346	0.324	0.645	0.823	0.384	0.179	0.136
NCI-H1975	0.872	0.878	0.584	0.28	0.222	0.267	0.252	0.219	0.175	0.166	0.398	0.486	0.382	0.293	0.17	0.27	0.342	0.27	0.16	0.142
